One substance from patent US20190211099A1, “METHODS AND COMPOSITIONS FOR TREATING CANCER WITH SIGLEC-9 ACTIVITY MODULATORS” (KING'S COLLEGE LONDON, priority 2016, published 2019) can be followed below.

Type in all cases: cell-based, human
The subject of assay [1] is THP-1 cells. In words: PAI-1, M-CSF and kynurenine in supernatants of differentiated THP-1 cells. As to conditions: 100 μg/mL MUC1-ST. On the procedure:
THP-1 cells were cultured at a concentration of 1×10^6/mL in AIM V medium. Cells were differentiated using […] phorbol 12-myristate 13-acetate (PMA) on day 0 and 100 ng/mL LPS on day 3 in the presence or absence of 100 μg/mL MUC1-ST or MUC1-T. Cell supernatants were harvested on day 5 and PAI-I concentration measured by ELISA.
(§1) Given that IDO catalyzes the rate-limiting step in the metabolism of tryptophan, the tryptophan metabolite kynurenine was detected as follows. 604, supernatant was mixed with 304, 30% trichloroacetic acid (TCA) and incubated for 30 minutes at 50° C. The supernatant was spun at 3000×g and 50 μL was harvested and mixed with 50 μL freshly prepared Ehrlich Reagent (2% p-dimethylaminobenzaldehyde in glacial acetic acid). After 10 minutes optical density (O.D.) was measured at 492 nm, and concentrations were calculated against a kynurenine standard curve. An increase in the tryptophan metabolite kynurenine was observed (FIG. 11D).
The intracellular effects of MUC1-ST binding to Siglec-9 were further explored in the monocytic cell line, THP-1. THP-1 cells were cultured for three days at a concentration of 1×10^6/mL in AIM V medium and differentiated using […] phorbol 12-myristate 13-acetate (PMA) in the presence or absence of 100 μg/mL MUC1-ST. […] THP-1 cells were further treated with DMSO or the MEK/ERK inhibitor PD98059 at 1004, and the concentration of PAI-1, M-CSF and kynurenine in cell supernatants were measured as described above. […] This increase in concentration was blocked by the MEK/ERK inhibitor PD98059 (FIG. 4I).

The next assay has as its system SHP1. In words: Western blot for phosphorylation of SHP1 in monocytes. As to conditions: primary monocytes. As for the experimental part: A Western blot to assay phosphorylation of SHP, which is recruited by phosphorylated Siglec-9 (Avril et al. (2004) supra) was conducted. Monocytes were incubated with MUC1-ST and lysed as described above, and the resulting lysates were separated by SDS PAGE (10% gel) before being transferred, blocked and probed with anti-SHP1 (Santa Cruz), anti-phospho SHP1 (Abcam) and appropriate secondary antibodies. Phosphorylation of SHP was not observed after MUC1-ST binding to Siglec-9 on primary monocytes (FIG. 13C) although again, phosphorylation of SHP1 was observed when Siglec-9 was activated via antibody cross-linking. No activation of SHP2 was observed.
In general terms: A western blot detects proteins with antibodies after separation by electrophoresis.

For a further assay, the system named is CD8+ T cells. The assay can be described thus: Co-culture of MUC1-ST educated M-CSF macrophages with CD3/CD28 stimulated autologous T cells. As to conditions: MUC1-ST educated M-CSF macrophages. On the procedure: In addition, primary monocytes were induced to differentiate to macrophages in the presence of MUC1-ST and then co-cultured for 48 hours with CD3/CD28 stimulated autologous CD8+ or CD4+ T cells. T cell proliferation and CD69/CD25 cell surface expression were measured using flow cytometry.

Assay [2] relates to THP-1 cells. In words: Calcium flux in differentiated THP-1 cells. As to conditions: THP-1 differentiated with PMA, 100 μg/mL MUC1-ST. As for the experimental part: In addition, in a murine tumor model Siglec-E (the mouse Siglec with the most similarity to human Siglec-9), was associated with a decrease in alternatively activated macrophages (Laubli et al. (2014) PROC. NATL. ACAD. SCI. USA). As a result, the triggering of a calcium flux when MUC1-ST engaged Siglec-9 was investigated. Briefly, monocytes pre-labeled with an intracellular calcium reporter (Fluo-4; Life Technologies) were treated with MUC1-ST, MUC1-T (100 μg/10^6 cells) or a T47D monolayer, for 4 hours at 4° C. The cells were brought up to 37° C. and calcium flux was measured at 530 nm using a plate reader at the indicated time points. Where not indicated, the time point was 60 seconds. When monocytes or macrophages were treated with MUC1-ST, a Siglec-9 dependent increase in calcium influx was observed (FIGS. 13E-F). A calcium flux was also observed when monocytes and T47D cells came into contact. This effect could also be inhibited by the anti-Siglec-9 antibody.
The intracellular effects of MUC1-ST binding to Siglec-9 were further explored in the monocytic cell line, THP-1. […] THP-1 cells were further treated with DMSO or the MEK/ERK inhibitor PD98059 at 1004, and the concentration of PAI-1, M-CSF and kynurenine in cell supernatants were measured as described above. […]

Assay [3] concerns monocyte derived dendritic cells. In words: Differentiation of monocytes into dendritic cells. As to conditions: MUC1-ST on day 0. On the procedure: To differentiate monocytes into macrophages, CD14+ cells were plated at a concentration of 1×10^6/mL in AIM V medium (Lonza) with either 50 ng/mL recombinant human M-CSF or 50 ng/mL recombinant human GM-CSF (Bio-Techne). The cytokines were added every 3 days. The cells were incubated at 37° C., 5% CO2 for 7 days to fully differentiate, before being characterized as macrophages via phenotypic flow cytometric analysis. To differentiate monocytes into dendritic cells (moDC), CD14+ cells were plated at a concentration of 1×10^6/mL in AIM V medium with 1500 U/mL recombinant human IL-4 (Bio-Techne) and 400 U/mL human GM-CSF (Bio-Techne) for 6 days to fully differentiate, before being characterized as immature DCs via phenotypic flow cytometric analysis (Epics XL, Beckman Coulter or FACSCalibur, BD Biosciences plus WinMDI or Cellquest software). MoDCs were matured using 1 μg/mL LPS for 24 hours.
In addition, the effects of MUC1-ST on the differentiation of monocytes into dendritic cells were assessed. Briefly, monocytes were treated with MUC1-ST on day 0 and differentiated into immature dendritic cells (DCs) using IL-4 (1500 U/mL) and GM-CSF (400 U/mL) in AIM-V media for 6 days. Immature DCs were matured using 1 μg/mL LPS for 24 hours. […]

Another assay concerns macrophages. In words: Kynurenine in supernatant of MUC1-ST treated macrophages (Ehrlich Reagent). On the procedure:
as §1

In another assay the test system is monocytes. The assay can be described thus: Nitric oxide release by monocytes (Griess method). On the procedure:
MUC1-ST was further evaluated for its ability to produce pro-inflammatory nitric oxide, a product of the arginine processing enzyme (Thompson et al. (2015) CARCINOGENESIS 36: S232-S253). Supernatant was assessed using the Griess method according to the manufacturer's instructions (Biotium).

As for “NeuAcα2,3Galβ1-3GalNAc linked via a Ser/Thr of MUC1 [MUC1-ST]”, in the assay on THP-1 cells [1] (THP-1, PMA, three days), the “PAI-1 concentration in cell supernatants” value is “increased” and the “kynurenine concentration in cell supernatants” value is listed as “increased”. Besides, the PAI-I secretion result with THP-1 cells [1] (THP-1 differentiated with PMA and LPS, day 5) was “increased”. Moreover, in the assay on SHP1, the “phosphorylation of SHP” value is “not observed”. Also, the “activation of CD8+ T cells (expression of CD25 and CD69)” value in the assay on CD8+ T cells is recorded as “lower level of activation”. Moreover, the “proliferation of CD8+ T cells” value in the assay with CD8+ T cells (48 hours co-culture) is given as “significantly inhibited”. Further, the calcium flux result in the assay on THP-1 cells [2] is “induce calcium flux”. In addition, the “levels of CD86 (immature DCs) and of CD86 and CD83 (matured DCs)” value in assay [3] is “lower levels”. Besides, in the assay on macrophages, the “tryptophan metabolite kynurenine in supernatant” value is listed as “increase”. The nitric oxide production entry with monocytes is on record as “produced nitric oxide”.
